Experimental data reported in PMC4551912, “Synthetic biosensors for precise gene control and real-time monitoring of metabolites” (Nucleic Acids Research, 2015).

Columns and labels:
TetR = TetR (Escherichia coli, UniProt P04483); type: cell-based; conditions: high-copy plasmid, LB, 37°C; extracellular inducer; induction (derepression); lumped parameter of uptake, DNA binding and Kd, not a pure affinity; read-out: Half maximal parameter
CdaR = biological target: T1, CdaR (Escherichia coli, UniProt P37047); type: cell-based; conditions: high-copy plasmid, LB, 37°C; extracellular inducer; activation; lumped parameter of uptake, DNA binding and Kd, not a pure affinity; read-out: Half maximal parameter
T1 sequence (P37047 1-385): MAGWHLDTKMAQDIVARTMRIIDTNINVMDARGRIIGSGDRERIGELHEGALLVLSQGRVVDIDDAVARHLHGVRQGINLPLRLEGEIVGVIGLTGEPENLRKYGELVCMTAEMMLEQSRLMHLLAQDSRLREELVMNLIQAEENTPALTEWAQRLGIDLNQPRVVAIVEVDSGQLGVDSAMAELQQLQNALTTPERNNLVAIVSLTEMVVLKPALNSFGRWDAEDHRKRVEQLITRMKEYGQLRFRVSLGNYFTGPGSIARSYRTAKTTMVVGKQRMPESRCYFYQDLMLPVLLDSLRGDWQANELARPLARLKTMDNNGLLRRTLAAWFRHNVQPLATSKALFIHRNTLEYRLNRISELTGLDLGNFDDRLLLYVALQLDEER

Sequence of TetR (P04483 whole entry, looked up): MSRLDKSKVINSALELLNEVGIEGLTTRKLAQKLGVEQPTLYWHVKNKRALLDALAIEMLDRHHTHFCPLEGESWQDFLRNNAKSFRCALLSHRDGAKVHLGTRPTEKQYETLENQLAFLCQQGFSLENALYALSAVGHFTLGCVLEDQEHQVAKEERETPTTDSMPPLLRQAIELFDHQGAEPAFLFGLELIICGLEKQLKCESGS

Structure (SMILES) | EC50 (TetR) | EC50 (CdaR)
Cc1c2c(c(O)c3c(O)cccc13)C(=O)[C@]1(O)C(=O)C(C(N)=O)=C(O)[C@@H](N(C)C)[C@@H]1C2 [anhydrotetracycline] | 0.081 ± 0.001 µM | –
O=C(O)[C@@H](O)[C@@H](O)[C@H](O)[C@@H](O)C(=O)O [glucarate] | – | 490 ± 60 µM
